Like-named read-outs stand apart in the source and are kept apart here.
Experiments:
human aminopeptidase N = biological target: T1, human aminopeptidase N (Homo sapiens, UniProt P15144); assay: Aminopeptidase activity on intact cells with substrate alanine-p-nitroanilide; format: cell-based; settings: concentrations as in footnote d
T1 construct: endogenous in cells
Method: (§1) Method. Infection of HL734 with CMV RC256 was performed as described in FIG. 1 in the presence of serial dilutions of either UT71 or a control mouse ascites. Cells were washed, fixed with glutaraldhyde and assayed for β-gal expression by incubation with p-nitrophenyl-β-D-galactopyranoside (1 mg/ml) and the production of p-nitrophenol was measured spectrophotometrically at 410 nm. To measure the effect of aminopeptidase inhibitors on viral infection, HL734 were preincubated with increasing concentrations of bestatin for 1 hour at 37° C., infected with CMV strain AD169 at an MOI=1-10 or SFV at an MOI=30 for 1 hour at 37° C., washed, and incubated in fresh media for six hours at 37° C. After fixation in ice cold acetone/methanol (1/1), CMV nuclear antigens were detected with a mouse monoclonal to the 72K CMV mIE protein (NEW/Dupont, Inc.) followed by a phycoerythrine-labelled F(ab′)2 fragment of rabbit-anti mouse IgG Dakopatts, Inc). […] Binding of HCMV to MRC-5 cells was carried out by incubating increasing concentration of ^35S-HCMV with MRC-5 cells for 2 hours at 4° C. Incubation was carried out in the presence of mouse IgG (Sigma, Inc.) or anti-leuM7 (Becton Dickinson, Inc.) at a concentration of 16 μg/ml. Cells were washed five times with hepes-buffered saline, solubilized with 0.5 M NaOH, and cell-associated ^35S-labelled virions was measured quantitatively by liquid scintillation counting. Aminopeptidase activity on intact cells was measured by plating 1-5×10^4 cells in 96-well plates, incubating overnight in fresh media, and the washed and incubated with alanine-p-nitroanilide (6 mM) at 37° C. At various times, the free p-nitroanilide released was measured spectrophoto-metrically at 410 nm. The aminopeptidase activity was normalized to cell number measured by BCA protein assay (Pierce). All measurements were determined in triplicate.
To investigate whether the enzymatic activity of APN is necessary for CMV infection, four different aminopeptidase inhibitors, actinonin, bestatin, 2,2′-dipyridyl and 1,10-phenanthroline, were evaluated for their effect on enzymatic activity and CMV infection bestatin and actinonin are competitive inhibitors of arinoneptidases, ard 1,10-phenanthroline and 2,2′-dipyridyl inhibit aminopeptidase activity by chelating zinc required for enzyme function. […] Toxicity of these substances, measured by trypan blue uptake in cells treated with the inhibitors, was less than 10% in the highest concentrations used (data not shown).

[1] = tested on: Semliki Forest Virus (SFV); assay: Semliki Forest Virus infection of HL734 cells, immunocytochemistry; format: cell-based; settings: concentrations as in footnote d
Source text: (§2) FIG. 2. Ability to inhibit infection by compounds that interact with human aminopeptidase N. Panel a: HL734 cells were infected with CMV strain RC256 in the presence of serial dilutions of either U71 (▪) or control mouse ascites ([]). Infection was quantitatively determined by spectrophotometric measurement of the cleavage of p-nitrophenyl-β-D-galactopyranoside by β-gal. Panel b: HL734 were infected with CMV strain AD169 (▪) or Semliki Forest Virus (SFV) ([]) in the presence of increasing concentration of bestatin. Infection was quantitatively determined by immunocytochemistry using an antibody to the mIE protein of CMV or immune serum to SFV and enumeration of infected calls. Panel c: the binding of ^35S-HCMV to MRC-5 cells in the presence of mouse IgG (X) or antibody to APN (∘). Panel d: the aminopeptidase N activity on the surface of HL734 (▪), NIH-3T3 (∘), hAPN-3T3 ([]), or hAPNmut-3T3 (Δ) cells expressed as optical density of reaction product p-nitroanilide.
as §1, with “Incubation was carried out in the presence of mouse IgG (Sigma, Inc.) or anti-leuM7 (Becton Dickinson, Inc.) at a concentration of 16 μg/ml.” left out

CMV strain AD169 = assay: CMV AD169 infection of HL734 cells in the presence of aminopeptidase inhibitors, mIE immunocytochemistry; format: cell-based, human cytomegalovirus
Source text: as §2, with “Ability to inhibit infection by compounds that interact with human aminopeptidase N. Panel a: HL734 cells were infected with CMV strain RC256 in the presence of serial dilutions of either U71 (▪) or control mouse ascites ([]).” left out
as §1
To investigate whether the enzymatic activity of APN is necessary for CMV infection, four different aminopeptidase inhibitors, actinonin, bestatin, 2,2′-dipyridyl and 1,10-phenanthroline, were evaluated for their effect on enzymatic activity and CMV infection bestatin and actinonin are competitive inhibitors of arinoneptidases, ard 1,10-phenanthroline and 2,2′-dipyridyl inhibit aminopeptidase activity by chelating zinc required for enzyme function.

[2] = chemical inhibitors at maximum non-toxic concentration: actinonin 5.45 mM, bestatin 4.35 mM, 1,10-phenanthroline 0.45 mM, 2,2′-dipyridyl 3.74 mM
[3] = Human betaherpesvirus 5, AD169, read-out: 50% inhibitory dose for CMV infection

T1 sequence (P15144 whole entry): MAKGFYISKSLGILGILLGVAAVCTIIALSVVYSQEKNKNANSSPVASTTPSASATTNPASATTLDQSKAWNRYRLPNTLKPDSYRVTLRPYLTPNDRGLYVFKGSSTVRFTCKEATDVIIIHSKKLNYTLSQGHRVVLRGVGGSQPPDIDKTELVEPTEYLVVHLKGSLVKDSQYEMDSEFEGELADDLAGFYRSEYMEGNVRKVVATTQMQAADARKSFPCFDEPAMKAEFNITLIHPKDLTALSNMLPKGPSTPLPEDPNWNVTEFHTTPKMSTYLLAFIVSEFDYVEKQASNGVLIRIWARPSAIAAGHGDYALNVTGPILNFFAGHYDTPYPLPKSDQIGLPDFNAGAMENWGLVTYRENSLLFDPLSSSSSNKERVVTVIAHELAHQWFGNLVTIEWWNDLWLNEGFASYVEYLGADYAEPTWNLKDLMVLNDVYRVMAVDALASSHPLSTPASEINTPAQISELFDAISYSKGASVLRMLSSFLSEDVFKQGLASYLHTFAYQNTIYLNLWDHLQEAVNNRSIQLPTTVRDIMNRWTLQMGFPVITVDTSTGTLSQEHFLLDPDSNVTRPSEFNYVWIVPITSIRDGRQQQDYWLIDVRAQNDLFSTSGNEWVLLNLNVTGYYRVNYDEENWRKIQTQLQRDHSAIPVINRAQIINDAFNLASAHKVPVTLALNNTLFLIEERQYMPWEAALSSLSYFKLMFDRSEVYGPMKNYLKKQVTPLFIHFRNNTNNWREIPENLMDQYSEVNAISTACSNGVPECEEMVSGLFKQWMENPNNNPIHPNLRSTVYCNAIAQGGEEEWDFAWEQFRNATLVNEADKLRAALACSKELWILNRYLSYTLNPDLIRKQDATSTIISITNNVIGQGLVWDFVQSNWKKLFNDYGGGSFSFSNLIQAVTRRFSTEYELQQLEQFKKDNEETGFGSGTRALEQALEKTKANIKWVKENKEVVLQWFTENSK

Compound | Inhibition of aminopeptidase activity (human aminopeptidase N) | Inhibition of SFV Infection [1] | IC50 (CMV strain AD169; HL734 cells, CMV AD169, read-out: 50% inhibitory dose for CMV infection) | Inhibition of CMV Infection (CMV strain AD169; [2]) | IC50 (CMV strain AD169; [3]) | inhibition at 4350 µM (CMV strain AD169; Human betaherpesvirus 5, AD169, read-out: Inhibition of CMV Infection) | inhibition at 5450 µM (CMV strain AD169; Human betaherpesvirus 5, AD169, chemical inhibitors at maximum non-toxic concentration: actinonin 5.45 mM, bestatin 4.35 mM, 1,10-phenanthroline 0.45 mM, 2,2′-dipyridyl 3.74 mM) | IC50 (CMV strain AD169; Human betaherpesvirus 5, HL734 cells, CMV AD169, read-out: 50% inhibitory dose for CMV infection)
c1ccc(-c2ccccn2)nc1 [2,2′-dipyridyl] | + (+ = >50 inhibition compared to mouse IgG control) | − (− = no inhibition) | 2.8 mM | + (+ = >50 inhibition compared to mouse IgG control) | – | – | – | –
c1cnc2c(c1)ccc1cccnc12 [1,10-phenanthroline] | + (+ = >50 inhibition compared to mouse IgG control) | − (− = no inhibition) | – | + (+ = >50 inhibition compared to mouse IgG control) | 0.25 mM | – | – | –
CC(C)C[C@H](NC(=O)[C@@H](O)[C@H](N)Cc1ccccc1)C(=O)O [bestatin] | + (+ = >50 inhibition compared to mouse IgG control) | − (− = no inhibition) | – | – | 2.5 mM | > 50% | – | –
CCCCC[C@H](CC(=O)NO)C(=O)N[C@H](C(=O)N1CCC[C@H]1CO)C(C)C [actinonin] | + (+ = >50 inhibition compared to mouse IgG control) | − (− = no inhibition) | – | – | – | – | > 50% | 3.3 mM

— patent publication US6511662B1, “Treatment of cytomegalovirus using aminopeptidase N” (priority 1993, dated 2003)
